In PubChem BioAssay AID248 (DTP/NCI, 2004):
Several values for one entry are separate records, joined by “and”; a condition that tells them apart may be missing. Equal entries are not always repeated. Toxic doses and inconclusive results are not listed. Rule as the data show it: active = T/C of 150% or more; inactive = T/C below 125%.

System: L1210 leukemia ip in BDF1 mice, survival T/C
Test: NCI In Vivo Anticancer Drug Screen. Data for tumor model L1210 Leukemia (intraperitoneal) in B6D2F1 (BDF1) mice
Conditions: endpoint: mean survival time, higher = longer survival
In short: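 Transplantable tumor model; survival measured in treated vs vehicle control mice. Value = treated/control.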

[1] = dose: 100.0 mg/kg/injection, schedule: Q04DX003 (ip), vehicle: saline with Tween-80
[2] = dose: 200.0 mg/kg/injection, schedule: Q04DX003 (ip), vehicle: saline with Tween-80
[3] = dose: 100.0 mg/kg/injection, schedule: Q01DX001 (ip), vehicle: saline
[4] = dose: 200.0 mg/kg/injection, schedule: Q01DX001 (ip), vehicle: saline
[5] = dose: 400.0 mg/kg/injection, schedule: Q01DX001 (ip), vehicle: saline
[6] = dose: 100.0 mg/kg/injection, schedule: Q01DX001 (ip), vehicle: carboxymethylcellulose (CMC)
[7] = dose: 200.0 mg/kg/injection, schedule: Q01DX001 (ip), vehicle: carboxymethylcellulose (CMC)
[8] = dose: 50.0 mg/kg/injection, schedule: Q01DX009 (ip), vehicle: saline with Tween-80
[9] = dose: 100.0 mg/kg/injection, schedule: Q01DX009 (ip), vehicle: saline with Tween-80
[10] = dose: 200.0 mg/kg/injection, schedule: Q01DX009 (ip), vehicle: saline with Tween-80
[11] = dose: 400.0 mg/kg/injection, schedule: Q04DX003 (ip), vehicle: saline with Tween-80
[12] = dose: 100.0 mg/kg/injection, schedule: Q04DX003 (ip), vehicle: Klucel (hydroxypropylcellulose) (HPC)
[13] = dose: 200.0 mg/kg/injection, schedule: Q04DX003 (ip), vehicle: Klucel (hydroxypropylcellulose) (HPC)
[14] = dose: 400.0 mg/kg/injection, schedule: Q04DX003 (ip), vehicle: Klucel (hydroxypropylcellulose) (HPC)
[15] = dose: 75.0 mg/kg/injection, schedule: Q01DX001 (ip), vehicle: saline
[16] = dose: 100.0 mg/kg/injection, schedule: Q01DX001 (ip), vehicle: saline with Tween-80
[17] = dose: 200.0 mg/kg/injection, schedule: Q01DX001 (ip), vehicle: saline with Tween-80
[18] = dose: 400.0 mg/kg/injection, schedule: Q01DX001 (ip), vehicle: saline with Tween-80

Measured: T/C

O=C(/C(=C\c1ccccc1)CN1CCOCC1)c1ccc(Br)cc1
inactive: dose: 12.5 mg/kg/injection, schedule: Q01DX009 (ip), vehicle: Klucel (hydroxypropylcellulose) (HPC) 96 % of control | dose: 25.0 mg/kg/injection, schedule: Q01DX009 (ip), vehicle: Klucel (hydroxypropylcellulose) (HPC) 93 % of control | dose: 50.0 mg/kg/injection, schedule: Q01DX009 (ip), vehicle: Klucel (hydroxypropylcellulose) (HPC) 91 % of control | [1] 87 % of control | [2] 93 % of control

COP(=O)(OCCCCCl)C(Cl)(Cl)Cl (stereo not given)
inactive: [3] 102 % of control | [4] 102 % of control | [5] 104 % of control

O=C(COc1ccc([N+](=O)[O-])cc1)OCCN1CCOCC1
inactive: [6] 92 % of control | [7] 111 % of control | dose: 400.0 mg/kg/injection, schedule: Q01DX001 (ip), vehicle: carboxymethylcellulose (CMC) 101 % of control

CN(C)C(=O)c1cccc(NCc2ccc3nc(N)nc(N)c3c2)c1
inactive: [8] 93 % of control | [9] 96 % of control and 88 % of control | [1] 97 % of control | [10] 96 % of control | [2] 92 % of control | [11] 92 % of control

CSc1ccc(NC(=O)Nc2ccc(Cl)cc2Cl)cc1
inactive: dose: 100.0 mg/kg/injection, schedule: Q01DX009 (ip), vehicle: Klucel (hydroxypropylcellulose) (HPC) 93 % of control | dose: 200.0 mg/kg/injection, schedule: Q01DX009 (ip), vehicle: Klucel (hydroxypropylcellulose) (HPC) 88 % of control | dose: 400.0 mg/kg/injection, schedule: Q01DX009 (ip), vehicle: Klucel (hydroxypropylcellulose) (HPC) 88 % of control

O=C1c2ccc([N+](=O)[O-])cc2-n2cccc21
inactive: [12] 95 % of control | [13] 104 % of control | [14] 98 % of control

CCCCCc1ccc(C)cc1OC(=O)CCl
inactive: dose: 28.0 mg/kg/injection, schedule: Q01DX Z (ip), vehicle: methylcellulose (MC) 97 % of control | dose: 42.0 mg/kg/injection, schedule: Q01DX Z (ip), vehicle: methylcellulose (MC) 97 % of control | dose: 62.0 mg/kg/injection, schedule: Q01DX Z (ip), vehicle: methylcellulose (MC) 92 % of control

Cc1ccc(C(=O)N/N=C/c2ccc(N(C)C)cc2Cl)cc1
inactive: dose: 100.0 mg/kg/injection, schedule: Q04DX002 (ip), vehicle: saline 105 % of control | dose: 200.0 mg/kg/injection, schedule: Q04DX002 (ip), vehicle: saline 108 % of control | dose: 400.0 mg/kg/injection, schedule: Q04DX002 (ip), vehicle: saline 105 % of control

Nc1ncnc2nc(Cc3ccccc3)[nH]c12
inactive: dose: 100.0 mg/kg/injection, schedule: Q01DX001 (ip), vehicle: gum acacia 95 % of control | dose: 200.0 mg/kg/injection, schedule: Q01DX001 (ip), vehicle: gum acacia 109 % of control

O=C(OC1CCCC1c1ccccc1)c1cccc([N+](=O)[O-])c1 (stereo not given)
inactive: [8] 90 % of control | [9] 90 % of control | [10] 87 % of control

CC(c1c[nH]c2ccccc12)C(N)C(=O)O (stereo not given)
inactive: dose: 100.0 mg/kg/injection, schedule: Q04DX003 (ip), vehicle: saline 95 % of control and 93 % of control | dose: 200.0 mg/kg/injection, schedule: Q04DX003 (ip), vehicle: saline 98 % of control and 92 % of control | dose: 400.0 mg/kg/injection, schedule: Q04DX003 (ip), vehicle: saline 95 % of control and 97 % of control

c1ccc(C2C(c3ccccc3)C(c3ccccc3)C2c2ccccc2)cc1 (stereo not given)
inactive: dose: 75.0 mg/kg/injection, schedule: Q01DX001 (ip), vehicle: carboxymethylcellulose (CMC) 91 % of control | dose: 150.0 mg/kg/injection, schedule: Q01DX001 (ip), vehicle: carboxymethylcellulose (CMC) 94 % of control | dose: 300.0 mg/kg/injection, schedule: Q01DX001 (ip), vehicle: carboxymethylcellulose (CMC) 88 % of control

CCCCCCCCCCCCN(CCCCCCCCCCCC)S(=O)(=O)c1ccc(Cl)c([N+](=O)[O-])c1
inactive: [12] 94 % of control | [13] 94 % of control | [14] 104 % of control

O=C(CN1CCCCC1)Nc1ccc(S(=O)(=O)c2ccc([N+](=O)[O-])cc2)cc1
inactive: [15] 87 % of control

Brc1ccc(SSc2ccc(Br)cc2)cc1
inactive: [3] 110 % of control | [4] 95 % of control | [5] 95 % of control

C[N+]1(N[P+](=O)NN2CCCCC2)CCCCC1 (stereo not given)
inactive: [6] 98 % of control | [7] 104 % of control

O=C(O)c1ccsc1C(=O)c1ccccc1
inactive: [16] 105 % of control | [17] 102 % of control | [18] 97 % of control

C=C(Br)CNC1CCC(CCCC)CC1 (stereo not given)
inactive: dose: 50.0 mg/kg/injection, schedule: Q04DX003 (ip), vehicle: Klucel (hydroxypropylcellulose) (HPC) 106 % of control | dose: 100.0 mg/kg/injection, schedule: Q01DX001 (ip), vehicle: Klucel (hydroxypropylcellulose) (HPC) 98 % of control | [12] 102 % of control | dose: 200.0 mg/kg/injection, schedule: Q01DX001 (ip), vehicle: Klucel (hydroxypropylcellulose) (HPC) 98 % of control | [13] 93 % of control | dose: 400.0 mg/kg/injection, schedule: Q01DX001 (ip), vehicle: Klucel (hydroxypropylcellulose) (HPC) 98 % of control

CC(C)N(CSc1ccc([N+](=O)[O-])cc1)CSc1ccc([N+](=O)[O-])cc1
inactive: [3] 100 % of control | [4] 96 % of control | [5] 98 % of control

Cc1c(-c2ccccc2)sc(N)c1C#N
inactive: [16] 94 % of control | [9] 93 % of control and 100 % of control | dose: 100.0 mg/kg/injection, schedule: Q04DX002 (ip), vehicle: saline with Tween-80 94 % of control | [1] 95 % of control | [17] 93 % of control | [10] 92 % of control | dose: 200.0 mg/kg/injection, schedule: Q04DX002 (ip), vehicle: saline with Tween-80 94 % of control and 98 % of control | [2] 100 % of control | [18] 93 % of control | dose: 400.0 mg/kg/injection, schedule: Q01DX009 (ip), vehicle: saline with Tween-80 100 % of control and 87 % of control | dose: 400.0 mg/kg/injection, schedule: Q04DX002 (ip), vehicle: saline with Tween-80 96 % of control | [11] 100 % of control

O=C(C[n+]1ccccc1Br)c1cccc([N+](=O)[O-])c1
inactive: dose: 75.0 mg/kg/injection, schedule: Q01DX001 (ip), vehicle: other 100 % of control | dose: 150.0 mg/kg/injection, schedule: Q01DX001 (ip), vehicle: other 108 % of control

N=C(N)N/N=C(\C=N\NC(=N)N)c1ccc(Oc2ccc(C(/C=N/NC(=N)N)=N\NC(=N)N)cc2)cc1
inactive: dose: 3.8 mg/kg/injection, schedule: Q01DX Z (ip), vehicle: saline 98 % of control | dose: 7.5 mg/kg/injection, schedule: Q01DX Z (ip), vehicle: saline 114 % of control | dose: 15.0 mg/kg/injection, schedule: Q01DX Z (ip), vehicle: saline 118 % of control

CCC(C)C(C(=O)OCCC[N+]1(C)CCCCC1)c1ccccc1 (stereo not given)
inactive: dose: 12.5 mg/kg/injection, schedule: Q01DX009 (ip), vehicle: saline 96 % of control | dose: 12.5 mg/kg/injection, schedule: Q04DX003 (ip), vehicle: saline 96 % of control | dose: 25.0 mg/kg/injection, schedule: Q01DX009 (ip), vehicle: saline 100 % of control | dose: 25.0 mg/kg/injection, schedule: Q04DX003 (ip), vehicle: saline 96 % of control | dose: 50.0 mg/kg/injection, schedule: Q01DX009 (ip), vehicle: saline 94 % of control | dose: 50.0 mg/kg/injection, schedule: Q04DX003 (ip), vehicle: saline 94 % of control

CC(C)Cc1ccc(N=Nc2ccccc2)cc1
inactive: [1] 93 % of control | [2] 93 % of control | [11] 88 % of control

COc1ccc(CC[n+]2cccc(C(C)=O)c2)cc1OC
inactive: [15] 103 % of control | dose: 150.0 mg/kg/injection, schedule: Q01DX001 (ip), vehicle: saline 106 % of control | dose: 300.0 mg/kg/injection, schedule: Q01DX001 (ip), vehicle: saline 113 % of control
